According to PubChem BioAssay (NCI):
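GI50 = concentration required for 50% inhibition of growth. Definition used: TGI = concentration required for complete inhibition of growth.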

Experiments:
Experiment in all cases: DTP human tumour cell line panel, 384-well format
[1] = test system: A498 renal
[2] = test system: A549 NSCLC
[3] = test system: ACHN renal
[4] = test system: CAKI-1 renal
[5] = test system: CCRF-CEM leukemia
[6] = test system: DU-145 prostate
[7] = test system: HCC-2998 colon
[8] = test system: HL-60(TB) leukemia
[9] = test system: HOP-62 NSCLC
[10] = test system: HOP-92 NSCLC
[11] = test system: HS 578T breast
[12] = test system: HT29 colon
[13] = test system: IGROV1 ovarian
[14] = test system: K-562 leukemia
[15] = test system: KM12 colon
[16] = test system: M14 melanoma
[17] = test system: MALME-3M melanoma
[18] = test system: MCF7 breast
[19] = test system: MDA-MB-231 breast
[20] = test system: MDA-MB-435 melanoma
[21] = test system: MDA-MB-468 breast
[22] = test system: MOLT-4 leukemia
[23] = test system: NCI-H226 lung
[24] = test system: NCI-H23 lung
[25] = test system: NCI-H322M lung
[26] = test system: NCI-H522 lung
[27] = test system: NCI/ADR-RES ovarian
[28] = test system: OVCAR-3 ovarian
[29] = test system: OVCAR-5 ovarian
[30] = test system: OVCAR-8 ovarian
[31] = test system: RPMI-8226 leukemia
[32] = test system: RXF 393 renal
[33] = test system: SF-268 CNS
[34] = test system: SF-539 CNS
[35] = test system: SK-MEL-2 melanoma
[36] = test system: SK-MEL-5 melanoma
[37] = test system: SK-OV-3 ovarian
[38] = test system: SNB-19 CNS
[39] = test system: SNB-75 CNS
[40] = test system: SR leukemia
[41] = test system: SW-620 colon
[42] = test system: T-47D breast
[43] = test system: TK-10 renal
[44] = test system: U251 glioblastoma
[45] = test system: UACC-257 melanoma
[46] = test system: UACC-62 melanoma
[47] = test system: UO-31 renal

C1=C/COCc2cc(ccc2OCCN2CCCC2)Nc2nccc(n2)-c2cccc(c2)COC/1
GI50 [1]: 829 nM | TGI [1]: 2850 nM | GI50 [2]: 1460 nM | TGI [2]: 3.49 µM | GI50 [3]: 870 nM | TGI [3]: 4.43 µM | GI50 [4]: 428 nM | TGI [4]: 1710 nM | GI50 [5]: 705 nM | TGI [5]: 1790 nM | GI50 [6]: 1060 nM | TGI [6]: 3.43 µM | GI50 [7]: 1350 nM | TGI [7]: 2720 nM | GI50 [8]: 251 nM | TGI [8]: 684 nM | GI50 [9]: 1400 nM | TGI [9]: 3.03 µM | GI50 [10]: 1600 nM | TGI [10]: 3.91 µM | GI50 [11]: 1360 nM | TGI [11]: 2670 nM | GI50 [12]: 1340 nM | TGI [12]: 2670 nM | GI50 [13]: 811 nM | TGI [13]: 2940 nM | GI50 [14]: 789 nM | TGI [14]: 2140 nM | GI50 [15]: 321 nM | TGI [15]: 1330 nM | GI50 [16]: 1160 nM | TGI [16]: 2390 nM | GI50 [17]: 829 nM | TGI [17]: 2020 nM | GI50 [18]: 521 nM | TGI [18]: 1780 nM | GI50 [19]: 1190 nM | TGI [19]: 2920 nM | GI50 [20]: 1320 nM | TGI [20]: 2730 nM | GI50 [21]: 1660 nM | TGI [21]: 3.03 µM | GI50 [22]: 563 nM | TGI [22]: 1290 nM | GI50 [23]: 1140 nM | TGI [23]: 2600 nM | GI50 [24]: 945 nM | TGI [24]: 2250 nM | GI50 [25]: 1010 nM | TGI [25]: 2470 nM | GI50 [26]: 1450 nM | TGI [26]: 2780 nM | GI50 [27]: 1910 nM | TGI [27]: 3.99 µM | GI50 [28]: 988 nM | TGI [28]: 2270 nM | GI50 [29]: 778 nM | TGI [29]: 2640 nM | GI50 [30]: 1290 nM | TGI [30]: 2670 nM | GI50 [31]: 1660 nM | TGI [31]: 3.03 µM | GI50 [32]: 1210 nM | TGI [32]: 2470 nM | GI50 [33]: 865 nM | TGI [33]: 2100 nM | GI50 [34]: 1700 nM | TGI [34]: 3.08 µM | GI50 [35]: 625 nM | TGI [35]: 1790 nM | GI50 [36]: 1450 nM | TGI [36]: 2770 nM | GI50 [37]: 888 nM | TGI [37]: 2350 nM | GI50 [38]: 2330 nM | TGI [38]: 6.91 µM | GI50 [39]: 1610 nM | TGI [39]: 2980 nM | GI50 [40]: 152 nM | TGI [40]: 303 nM | GI50 [41]: 1520 nM | TGI [41]: 3.4 µM | GI50 [42]: 1270 nM | TGI [42]: 2670 nM | GI50 [43]: 1330 nM | TGI [43]: 3.56 µM | GI50 [44]: 1540 nM | TGI [44]: 3.29 µM | GI50 [45]: 649 nM | TGI [45]: 1410 nM | GI50 [46]: 685 nM | TGI [46]: 1920 nM | GI50 [47]: 1470 nM | TGI [47]: 3.19 µM
